The values below come from patent EP4603105A1, “PHARMACEUTICAL COMPOSITION CONTAINING CYCLIC COMPOUND HAVING SELECTIVE KRAS INHIBITORY EFFECT AGAINST HRAS AND NRAS” (CHUGAI SEIYAKU KABUSHIKI KAISHA, priority 2022, dated 2024).

Assay [1] relates to human lung cancer strain NCI-H441. The assay can be described thus: NCI-H441 cell proliferation inhibitory activity (CellTiter-Glo, 4 days). It is filed as cell-based. The note with it: NCI-H441 cells, 4 days, read-out: NCl-H441 IC50. Put shortly: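 Step one: dispense the test compound in serial DMSO dilutions. Step three: add the reagent and measure […].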
A general note: ATP-based viability assays read luminescence as a measure of living cells.

Assay [2] addresses GDP-bound KRAS wild-type protein (Homo sapiens, UniProt P01116). The assay can be described thus: Binding to KRAS by surface plasmon resonance (SPR), dissociation constant KD. To be noted: Single Cycle Kinetics. Put shortly: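 SPR, 30°C: Avi-biotin RAS·GDP captured via Biotin CAPture (~100–300 RU); running buffer HBS pH 7.4, 1 mM DTT, 10 mM MgCl2, 0.01% Tween 20, 10 µM GDP, 4% DMSO. Single-cycle kinetics, 100 µL/min, 75 s injections; 1:1 model → KD.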
Background: In SPR one partner is held on a chip, and binding of the other changes the refractive index at the surface.

For a further assay, the target named is HRAS wild-type protein (Homo sapiens, UniProt P01112). Briefly: Binding to HRAS by surface plasmon resonance (SPR), KD and KD ratio to KRAS. To be noted: ratio of KD for HRAS wild-type protein to KD for KRAS. Put shortly: (§1)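 Biotinylated GDP-bound RAS was captured at about 100–300 RU. Running buffer: HBS pH 7.4, 10 mM MgCl2, 10 µM GDP, 1 mM DTT, 0.01% Tween 20, 4% DMSO.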

For assay [3], the target named is GDP-bound NRAS wild-type protein (Homo sapiens, UniProt P01111). The assay can be described thus: Binding to NRAS by surface plasmon resonance (SPR), KD and KD ratio to KRAS. The note with it: ratio of KD for GDP-bound NRAS wild-type protein to KD for KRAS. Put shortly: as §1

The structures appear in SMILES notation.

Usually IC50 stands for the concentration that gives 50% inhibition. The Kd is the equilibrium constant for the complex coming apart. Low readings indicate tighter binding, high ones weaker binding.

GDP-bound KRAS wild-type protein, sequence (P01116 1-188 isoform P01116-2): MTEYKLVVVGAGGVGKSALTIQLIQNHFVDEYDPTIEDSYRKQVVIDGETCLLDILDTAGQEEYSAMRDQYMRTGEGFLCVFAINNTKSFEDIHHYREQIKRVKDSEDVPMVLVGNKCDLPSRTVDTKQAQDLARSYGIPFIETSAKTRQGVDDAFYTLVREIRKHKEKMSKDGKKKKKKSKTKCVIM
HRAS wild-type protein, sequence (P01112 whole entry): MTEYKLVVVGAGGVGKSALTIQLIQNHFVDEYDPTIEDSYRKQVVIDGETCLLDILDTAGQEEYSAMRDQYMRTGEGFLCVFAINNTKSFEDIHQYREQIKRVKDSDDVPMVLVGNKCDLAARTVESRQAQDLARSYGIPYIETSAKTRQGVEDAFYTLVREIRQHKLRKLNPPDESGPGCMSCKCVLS
GDP-bound NRAS wild-type protein, sequence (P01111 whole entry): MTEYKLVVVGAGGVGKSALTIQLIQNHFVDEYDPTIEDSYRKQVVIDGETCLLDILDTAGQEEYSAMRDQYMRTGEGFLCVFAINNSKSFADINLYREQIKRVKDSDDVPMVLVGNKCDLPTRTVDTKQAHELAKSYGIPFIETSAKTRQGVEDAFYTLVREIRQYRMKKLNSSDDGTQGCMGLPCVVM

As for `C#CC[C@H]1C(=O)N[C@@H]([C@@H](C)CC)C(=O)N2CCC[C@H]2C(=O)N(C)[C@H]2C/C=C\CCN(C2=O)[C@@H](Cc2ccc(C)cc2)C(=O)N(C)CC(=O)N[C@@H](CCc2ccc(C(F)(F)F)c(Cl)c2)C(=O)N2C[C@H](OCC)C[C@H]2C(=O)N(C)C2(CCC2)C(=O)N(C)[C@@H](C2CCCC2)C(=O)N(C)[C@H](C(=O)N(C)C)CC(=O)N1C` [PP3257], the IC50 in assay [1] came out at 2.2 nM. In addition, in assay [2], binding was put at a Kd of 0.1 nM. For the same compound, on HRAS wild-type protein, the “HRAS /KRAS” value was “B (a compound having 3 or more and less than 10 is denoted as B)”. The “NRAS /KRAS” value in assay [3] is “A (a compound having 10 or more and less than 20 is denoted as A)”.

For `C#CC[C@H]1C(=O)N[C@@H]([C@@H](C)CC)C(=O)N2CCCC[C@H]2C(=O)N(C)[C@H]2C/C=C\CCN(C2=O)[C@@H](Cc2ccc(C(F)(F)F)cc2)C(=O)N(C)CC(=O)N[C@@H](CCc2cc(F)c(C(F)(F)F)c(F)c2)C(=O)N2C[C@H](OCC)C[C@H]2C(=O)N(C)C2(CCC2)C(=O)N(C)[C@@H](C2CCCC2)C(=O)N(C)[C@H](C(=O)N(C)C)CC(=O)N1C` [PP3259], the IC50 in assay [1] amounted to 49.8 nM. The compound further came in with a Kd in assay [2] of 1.2 nM. Besides, at HRAS wild-type protein, the “HRAS /KRAS” value is “B (a compound having 3 or more and less than 10 is denoted as B)”. Moreover, the “NRAS /KRAS” value in assay [3] was “A (a compound having 10 or more and less than 20 is denoted as A)”.

On to `C#CC[C@H]1C(=O)N[C@@H]([C@@H](C)CC)C(=O)N2CCCCC[C@H]2C(=O)N(C)[C@H]2C/C=C\CCN(C2=O)[C@@H](Cc2ccc(C)cc2)C(=O)N(C)CC(=O)N[C@@H](CCc2ccc(C(F)(F)F)c(OC)c2)C(=O)N2C[C@H](OCC)C[C@H]2C(=O)N(C)C2(CCC2)C(=O)N(C)[C@@H](C2CCCC2)C(=O)N(C)[C@H](C(=O)N(C)C)CC(=O)N1C` [PP3267], for which the IC50 in assay [1] was 196 nM. The same compound showed a Kd in assay [2] of 5 nM. Besides, the “HRAS /KRAS” value on HRAS wild-type protein is “B (a compound having 3 or more and less than 10 is denoted as B)”. Further, in assay [3], the “NRAS /KRAS” value is “A (a compound having 10 or more and less than 20 is denoted as A)”.

Regarding `CCC[C@H]1C(=O)N[C@@H]([C@@H](C)CC)C(=O)N2CCCC[C@H]2C(=O)N(C)[C@H]2C/C=C\CCN(C2=O)[C@@H](Cc2ccc(C(F)(F)F)cc2)C(=O)N(C)CC(=O)N[C@@H](CCc2ccc(C(F)(F)F)c(OC)c2)C(=O)N2C[C@H](OCC)C[C@H]2C(=O)N(C)C2(CCC2)C(=O)N(C)[C@@H](C2CCCC2)C(=O)N(C)[C@H](C(=O)N(C)C)CC(=O)N1C` [PP3270], the IC50 in assay [1] stood at 13.9 nM. Further, binding in assay [2] was characterised by a dissociation constant (Kd) of 0.43 nM. Besides, the “HRAS /KRAS” value at HRAS wild-type protein is “B (a compound having 3 or more and less than 10 is denoted as B)”. Also, the “NRAS /KRAS” value in assay [3] is “A (a compound having 10 or more and less than 20 is denoted as A)”.

As to `CCC[C@H]1C(=O)N[C@@H]([C@@H](C)CC)C(=O)N2CCCC[C@H]2C(=O)N(C)[C@H]2C/C=C\CCN(C2=O)[C@@H](Cc2ccc(C(F)(F)F)cc2)C(=O)N(C)CC(=O)N[C@@H](CCc2cc(F)c(C(F)(F)F)c(F)c2)C(=O)N2C[C@H](OCC)C[C@H]2C(=O)N(C)C2(CCC2)C(=O)N(C)[C@@H](C2CCCC2)C(=O)N(C)[C@H](C(=O)N(C)C)CC(=O)N1C` [PP3271], the 50% inhibitory concentration (IC50) in assay [1] was 22.7 nM. For the same compound, the Kd in assay [2] was determined as 0.82 nM. Also, the “HRAS /KRAS” value on HRAS wild-type protein is “B (a compound having 3 or more and less than 10 is denoted as B)”. Further, the “NRAS /KRAS” value in assay [3] is “A (a compound having 10 or more and less than 20 is denoted as A)”.

As to `CCC[C@H]1C(=O)N[C@@H]([C@@H](C)CC)C(=O)N2CCCC[C@H]2C(=O)N(C)[C@H]2C/C=C\CCN(C2=O)[C@@H](Cc2ccc(C(F)(F)F)cc2)C(=O)N(C)CC(=O)N[C@@H](CCc2ccc(C(F)(F)F)c(Cl)c2)C(=O)N2C[C@H](OCC)C[C@H]2C(=O)N(C)C2(CCC2)C(=O)N(C)[C@@H](C2CCCC2)C(=O)N(C)[C@H](C(=O)N(C)C)CC(=O)N1C` [PP3272], in assay [1], the IC50 amounted to 19.4 nM. Besides, in assay [2], the Kd turned out to be 0.96 nM. Moreover, the “HRAS /KRAS” value on HRAS wild-type protein was “B (a compound having 3 or more and less than 10 is denoted as B)”. In addition, the “NRAS /KRAS” value in assay [3] was “A (a compound having 10 or more and less than 20 is denoted as A)”.

On to `CCC[C@H]1C(=O)N[C@@H]([C@@H](C)CC)C(=O)N2CCCC[C@H]2C(=O)N(C)[C@H]2C/C=C\CCN(C2=O)[C@@H](Cc2ccc(C)cc2)C(=O)N(C)CC(=O)N[C@@H](CCc2ccc(C(F)(F)F)c(OC)c2)C(=O)N2C[C@H](OCC)C[C@H]2C(=O)N(C)C2(CCC2)C(=O)N(C)[C@@H](C2CCCC2)C(=O)N(C)[C@H](C(=O)N(C)C)CC(=O)N1C` [PP3273], for which the IC50 in assay [1] was 34 nM. Moreover, the Kd in assay [2] is 0.5 nM. Further, the “HRAS /KRAS” value on HRAS wild-type protein is “B (a compound having 3 or more and less than 10 is denoted as B)”. Besides, the “NRAS /KRAS” value in assay [3] is “A (a compound having 10 or more and less than 20 is denoted as A)”.

As for `CCC[C@H]1C(=O)N[C@@H]([C@@H](C)CC)C(=O)N2CCCC[C@H]2C(=O)N(C)[C@H]2C/C=C\CCN(C2=O)[C@@H](Cc2ccc(C)cc2)C(=O)N(C)CC(=O)N[C@@H](CCc2cc(F)c(C(F)(F)F)c(F)c2)C(=O)N2C[C@H](OCC)C[C@H]2C(=O)N(C)C2(CCC2)C(=O)N(C)[C@@H](C2CCCC2)C(=O)N(C)[C@H](C(=O)N(C)C)CC(=O)N1C` [PP3274], the IC50 in assay [1] came out at 25.1 nM. In addition, in assay [2], binding was put at a Kd of 0.81 nM. Also, the “HRAS /KRAS” value at HRAS wild-type protein is “B (a compound having 3 or more and less than 10 is denoted as B)”. Moreover, the “NRAS /KRAS” value in assay [3] was “A (a compound having 10 or more and less than 20 is denoted as A)”.

For `CCC[C@H]1C(=O)N[C@@H]([C@@H](C)CC)C(=O)N2CCCC[C@H]2C(=O)N(C)[C@H]2C/C=C\CCN(C2=O)[C@@H](Cc2ccc(C)cc2)C(=O)N(C)CC(=O)N[C@@H](CCc2ccc(C(F)(F)F)c(Cl)c2)C(=O)N2C[C@H](OCC)C[C@H]2C(=O)N(C)C2(CCC2)C(=O)N(C)[C@@H](C2CCCC2)C(=O)N(C)[C@H](C(=O)N(C)C)CC(=O)N1C` [PP3275], in assay [1], the IC50 turned out to be 84.8 nM. Also, the Kd in assay [2] came out at 1.7 nM. The “HRAS /KRAS” value on HRAS wild-type protein is “B (a compound having 3 or more and less than 10 is denoted as B)”. Besides, the “NRAS /KRAS” value in assay [3] is “B (a compound having 3 or more and less than 10 is denoted as B)”.

Regarding `CCC[C@H]1C(=O)N[C@@H]([C@@H](C)CC)C(=O)N2CCCCC[C@H]2C(=O)N(C)[C@H]2C/C=C\CCN(C2=O)[C@@H](Cc2ccc(C(F)(F)F)cc2)C(=O)N(C)CC(=O)N[C@@H](CCc2ccc(C(F)(F)F)c(OC)c2)C(=O)N2C[C@H](OCC)C[C@H]2C(=O)N(C)C2(CCC2)C(=O)N(C)[C@@H](C2CCCC2)C(=O)N(C)[C@H](C(=O)N(C)C)CC(=O)N1C` [PP3276], the IC50 in assay [1] was determined as 105 nM. The same compound showed a Kd in assay [2] of 4 nM. In addition, the “HRAS /KRAS” value on HRAS wild-type protein is “A (a compound having 10 or more and less than 20 is denoted as A)”. Further, in assay [3], the “NRAS /KRAS” value was “A (a compound having 10 or more and less than 20 is denoted as A)”.

Consider `CCC[C@H]1C(=O)N[C@@H]([C@@H](C)CC)C(=O)N2CCCCC[C@H]2C(=O)N(C)[C@H]2C/C=C\CCN(C2=O)[C@@H](Cc2ccc(C)cc2)C(=O)N(C)CC(=O)N[C@@H](CCc2ccc(C(F)(F)F)c(OC)c2)C(=O)N2C[C@H](OCC)C[C@H]2C(=O)N(C)C2(CCC2)C(=O)N(C)[C@@H](C2CCCC2)C(=O)N(C)[C@H](C(=O)N(C)C)CC(=O)N1C` [PP3279], for which the IC50 in assay [1] came out at 144 nM. This compound also gave a Kd in assay [2] of 4.5 nM. For the same compound, the “HRAS /KRAS” value at HRAS wild-type protein is “B (a compound having 3 or more and less than 10 is denoted as B)”. Besides, the “NRAS /KRAS” value in assay [3] is “A (a compound having 10 or more and less than 20 is denoted as A)”.
